# Assay: Inhibition of CSF1R in mouse M-NFS-60 cells assessed as inhibition of cell proliferation after 72 hrs by Celltiter-Blue assay
row,SMILES,IC50
1,CN1C(C)(C)CC(Oc2ccc(C(=O)Nc3ccc(NC(=O)Nc4cc(C(C)(C)C)on4)cc3)nc2)CC1(C)C,50.4 nM
2,CCN1C(C)(C)CC(Oc2ccc(C(=O)Nc3ccc(NC(=O)Nc4cc(C(C)(C)C)on4)cc3)nc2)CC1(C)C,46.3 nM
3,CC(C)(C)c1cc(NC(=O)Nc2ccc(NC(=O)c3ccc(OC4CCN(C5CC5)CC4)cn3)cc2)no1,150 nM
4,CC(C)(C)c1cc(NC(=O)Nc2ccc(NC(=O)c3ccc(OC4CCN(C(C)(C)C)CC4)cn3)cc2)no1,64.4 nM

# The remaining compounds from weak to strong by IC50, led by results:
row,IC50,SMILES
1,223 nM,Cc1ccc(C(=O)Nc2ccc(NC(=O)Nc3cc(C(C)(C)C)on3)cc2)nc1
2,78 nM,CC(C)N1CCC(Oc2ccc(C(=O)Nc3ccc(NC(=O)Nc4cc(C(C)(C)C)on4)cc3)nc2)CC1
3,74.7 nM,CC1(C)CC(Oc2ccc(C(=O)Nc3ccc(NC(=O)Nc4cc(C(C)(C)C)on4)cc3)nc2)CC(C)(C)N1
4,63.9 nM,Cc1ccnc(C(=O)Nc2ccc(NC(=O)Nc3cc(C(C)(C)C)on3)cc2)c1
